Assay results: patent US20050277699A1, “Method of decreasing sebum production and pore size” (Unilever Home & Personal Care USA, Division Of Conopco, Inc., priority 2004, published 2005)

Tested on: human sebocytes
Assay: Sebocyte assay: 14C-acetate label remaining in cultured sebocytes (sebum suppression)
Format: cell-based
Description: Secondary cultures of human sebocytes obtained from an adult […] were grown in 96-well tissue culture plates (Packard) until three days post-confluence. Sebocyte growth medium consisted of Clonetics Keratinocyte Basal Medium (KBM) supplemented with 14 ug/ml bovine pituitary extract, 0.4 ug/ml hydrocortisone, 5 ug/ml insulin, 10 ng/ml epidermal growth factor, 1.2×10^−10 M cholera toxin, 100 units/ml penicillin, and 100 ug/ml streptomycin. All cultures were incubated at 37° C. in the presence of 7.5% CO2. Medium was changed three times per week. On the day of experimentation, the growth medium was removed and the sebocytes washed three times with sterile Dulbecco's Modified Eagle Medium (DMEM; phenol red free). Fresh DMEM (200-microliters per well) was added to each sample (5 replicates) with 5-microliters of test agent (DL-α-Difluoromethylornithine hydrochloride) solubilized in water. Controls consisted of addition of water alone. Each plate was returned to the incubator for 20-hours followed by the addition of ^14C-acetate buffer (5 mM final concentration, 56 mCi/mmol specific activity). Sebocytes were returned to the incubator for 4-hours afterwhich each culture was rinsed 3-times with phosphate buffered saline to remove unbound label. Radioactive label remaining in the sebocytes was determined using a Packard TopCount scintillation counter. Statistical significance (p value) was calculated using student's t-test. Phenol Red, a known sebum suppressive agent, was employed as a positive control. […] The experiment was repeated as above with modifications. On the day of experimentation, the growth medium was removed and the sebocytes washed three times with sterile Dulbecco's Modified Eagle Medium (DMEM; phenol red free). Fresh DMEM was added to each sample (3 replicates) with 5-microliters of test agent (DL-a-Difluoromethylornithine hydrochloride) solubilized in water. Controls consisted of addition of water alone. Each plate was returned to the incubator for 68-hours followed by the addition of ^14C-acetate buffer (5 mM final concentration, 56 mCi/mmol specific activity). Sebocytes were returned to the incubator for 4-hours, followed by rinsing each culture 3-times with phosphate buffered saline to remove unbound label. Radioactive label remaining in the sebocytes was determined using a Packard TopCount scintillation counter. Statistical significance (p value) was calculated using student's t-test.

Row | SMILES | % of Control (radioactive label remaining in the sebocytes) (10 uM, 20-hours incubation then 4-hours 14C-acetate (24-hours), 5 replicates) [%] | % of Control (radioactive label remaining in the sebocytes) (10 uM, 68-hours incubation then 4-hours 14C-acetate, 3 replicates) [%] | % of Control (radioactive label remaining in the sebocytes) (1000 uM, 20-hours incubation then 4-hours 14C-acetate (24-hours), 5 replicates) [%] | % of Control (radioactive label remaining in the sebocytes) (1000 uM, 68-hours incubation then 4-hours 14C-acetate, 3 replicates) [%] | sebum suppressive activity (in words) (after prolonged incubation (68-hours + 4-hours)) | activity at 28.2 µM (Homo sapiens, 28.2 uM, 20-hours incubation then 4-hours 14C-acetate (24-hours), positive control, read-out: % of Control (radioactive label remaining in the sebocytes)) [%] | activity at 282 µM (Homo sapiens, 282 uM, 20-hours incubation then 4-hours 14C-acetate (24-hours), positive control, read-out: % of Control (radioactive label remaining in the sebocytes)) [%]
1 | Cl.NCCCC(N)(C(=O)O)C(F)F (racemic) [DFMO, DL-α-Difluoromethylornithine hydrochloride] | 95.5 | 59.5 | 88.0 | 41.4 | enhanced sebum suppressive activity | – | –
2 | O=S1(=O)OC(c2ccc(O)cc2)(c2ccc(O)cc2)c2ccccc21 [Phenol Red] | – | – | – | – | – | 22.1 | 34.5
